Measured values as given in patent US10000496B2, “Compositions useful for treating disorders related to kit and PDGFR” (BLUEPRINT MEDICINES CORPORATION, priority 2015, dated 2018).

What was measured:
D816V Kit = molecular target: T1, D816V Kit (Homo sapiens, UniProt P10721, D816V); assay: Kit D816V assay at Km (Caliper electrophoretic mobility shift); details: D816V Kit 0.5 nM, 15 uM ATP (Km), 1 uM Srctide, 25 C, 90 minutes; read-out: Biochemical Activity D816V IC50
T1 construct: purchased Carna Bioscience 08-156
Method: In order to assess the activity of chemical compounds against the relevant kinase of interest, the Caliper LifeSciences electrophoretic mobility shift technology platform is used. Fluorescently labeled substrate peptide is incubated in the presence of kinase and ATP so that a […] proportion of the peptide is phosphorylated. At the end of the reaction, the mix of phosphorylated (product) and non-phosphorylated (substrate) peptides are passed through the microfluidic system of the Caliper EZ Reader 2, under an applied potential difference. The presence of the phosphate group on the product peptide provides a difference in mass and charge between those of the substrate peptide, resulting in a separation of the substrate and product pools in the sample. As the pools pass a LEDS within the instrument, these pools are detected and resolved as separate peaks. The ratio between these peaks therefore reflects the activity of the chemical matter at that concentration in that well, under those conditions.
Kit D816V assay at Km: In each well of a 384-well plate, 0.04 ng/ul (0.5 nM) of D816V Kit (Carna Bioscience 08-156) was incubated in a total of 12.5 ul of buffer (100 mM HEPES pH 7.5, 0.015% Brij 35, 10 mM MgCl2, 1 mM DTT) with 1 uM Srctide (5-FAM-GEEPLYWSFPAKKK-NH2) and 15 uM ATP at 25 C for 90 minutes in the presence or absence of a dosed concentration series of compound (1% DMSO final concentration). The reaction was stopped by the addition of 70 ul of Stop buffer (100 mM HEPES pH 7.5, 0.015% Brij 35, 35 mM EDTA and 0.2% of Coating Reagent 3 (Caliper Lifesciences)). The plate was then read on a Caliper EZReader 2 (protocol settings:—1.9 psi, upstream voltage—700, downstream voltage—3000, post sample sip 35s). Data was normalized to 0% and 100% inhibition controls and the IC50 or EC50 calculated using a 4-parameter fit using GraphPad Prism.

[1] = molecular target: T2, Kit D816V in HMC1.2 cells (Homo sapiens, UniProt P10721, D816V/V560G); assay: HMC1.2 autophosphorylation assay (Kit autophosphorylation at tyrosine 719, AlphaLISA); format: cell-based; details: HMC1.2 mast cell leukemia cells (Kit V560G and D816V), phospho-Y719 c-Kit, 90 minutes; read-out: Cellular Activity IC50
T2 construct: endogenous in cells; host or cells: HMC1.2
Method: 10,000 HMC1.2 cells were incubated in 22 ul culture media (phenol-red free IMDM, no serum) in each well of a 384-well plate and serum starved overnight in a tissue culture incubator (5% CO2, 37° C.). A 10-point dose concentration series of compound (25 uM-95.4 pM) were then added to the cells in a volume of 3.1 ul to each well (0.25% DMSO final concentration). After 90 minutes, 6 ul of 5× AlphaLISA Lysis Buffer (Perkin Elmer) supplemented with a protease and phosphatase inhibitor cocktail (Cell Signaling Technologies) was added to each well and shaken at 450 rpm for 15 minutes at 4° C. 10 ul of phospho-Y719 c-Kit and total c-Kit antibodies (15 nM final concentration, Cell Signaling Technologies) and 50 ug/ml AlphaLISA rabbit acceptor beads (Perkin Elmer) were added to each well and shaken at 300 rpm at room temperature for 2 hours. 10 ul of 100 ug/ml streptavidin donor beads (Perkin Elmer) were added to each well, blocked from light with aluminum adhesive and shaken at 300 rpm at room temperature for 2 hours. Fluorescence signal was obtained on Envision (Perkin Elmer) by AlphaScreen 384 well HTS protocol. Data was normalized to 0% and 100% inhibition controls and the IC50 was calculated using Four Parameter Logistic IC50 curve fitting.
This cell line contains Kit mutated at positions V560G and D816V resulting in constitutive activation of the kinase. The following compounds were tested in an assay to measure direct inhibition of Kit D816V kinase activity by assaying Kit autophosphorylation at tyrosine 719 on the Kit protein.

T1 sequence (P10721 26-976 D816V): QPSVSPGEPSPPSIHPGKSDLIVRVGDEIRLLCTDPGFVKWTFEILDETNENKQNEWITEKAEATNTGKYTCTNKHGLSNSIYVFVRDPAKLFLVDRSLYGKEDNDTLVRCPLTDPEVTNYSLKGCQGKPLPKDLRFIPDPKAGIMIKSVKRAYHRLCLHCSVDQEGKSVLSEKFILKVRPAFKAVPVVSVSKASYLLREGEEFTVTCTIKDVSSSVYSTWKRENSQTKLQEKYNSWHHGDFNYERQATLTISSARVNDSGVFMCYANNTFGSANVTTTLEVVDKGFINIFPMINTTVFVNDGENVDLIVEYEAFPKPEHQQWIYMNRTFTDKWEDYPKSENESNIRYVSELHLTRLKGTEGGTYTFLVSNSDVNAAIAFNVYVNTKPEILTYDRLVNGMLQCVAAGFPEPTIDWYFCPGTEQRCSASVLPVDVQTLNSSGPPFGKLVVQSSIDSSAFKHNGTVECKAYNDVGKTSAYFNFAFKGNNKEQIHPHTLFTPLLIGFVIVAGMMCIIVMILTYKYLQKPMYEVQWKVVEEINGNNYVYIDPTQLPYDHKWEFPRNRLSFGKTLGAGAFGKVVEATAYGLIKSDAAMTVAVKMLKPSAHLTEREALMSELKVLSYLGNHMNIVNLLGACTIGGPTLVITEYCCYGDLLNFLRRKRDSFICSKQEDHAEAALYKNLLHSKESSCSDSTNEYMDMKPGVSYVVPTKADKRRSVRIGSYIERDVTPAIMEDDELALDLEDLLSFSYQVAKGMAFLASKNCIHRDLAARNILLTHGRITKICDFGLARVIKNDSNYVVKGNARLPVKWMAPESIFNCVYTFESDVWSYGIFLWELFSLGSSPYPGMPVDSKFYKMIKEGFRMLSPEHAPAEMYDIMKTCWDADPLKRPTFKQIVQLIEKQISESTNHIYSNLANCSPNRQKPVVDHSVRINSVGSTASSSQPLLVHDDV
T2 sequence (P10721 26-976 V560G/D816V): as the sequence (P10721 26-976 D816V) above, with V535G counted along it

Row | IC50 (D816V Kit) | IC50 [1] | SMILES
1 | 1.01 to 10 nM | < 10 nM | Cn1cc(-c2cc3c(-c4ccc(NC(=O)C(O)c5ccc(Cl)cc5)cc4)ncnn3c2)cn1 (stereo not drawn) [Compound 33, 2-(4-chlorophenyl)-2-hydroxy-N-(4-(6-(1-methyl-1H-pyrazol-4-yl)pyrrolo[1,2-f][1,2,4]triazin-4-yl)phenyl)acetamide]
2 | 1.01 to 10 nM | 1000 to 10000 nM | Cn1cc(-c2cc3c(-c4ccc(NC(=O)Cc5cccnc5)cc4)ncnn3c2)cn1 [Compound 4]
3 | 1.01 to 10 nM | 10 to 100 nM | Cn1cc(-c2cc3c(-c4ccc(NC(=O)Cc5ccc(Cl)nc5)cc4)ncnn3c2)cn1 [Compound 20]
4 | 1.01 to 10 nM | < 10 nM | Cn1cc(-c2cc3c(-c4ccc(NC(=O)[C@@](C)(N)c5ccc(Cl)cc5)cc4)ncnn3c2)cn1 [Compound 45, 2-amino-2-(4-chlorophenyl)-N-(4-(6-(1-methyl-1H-pyrazol-4-yl)pyrrolo[1,2-f][1,2,4]triazin-4-yl)phenyl)propanamide]
5 | 1.01 to 10 nM | < 10 nM | Cn1cc(-c2cc3c(-c4ccc(NC(=O)[C@@](C)(O)c5ccc(Cl)cc5)cc4)ncnn3c2)cn1 [Compound 49, 2-(4-chlorophenyl)-2-hydroxy-N-(4-(6-(1-methyl-1H-pyrazol-4-yl)pyrrolo[1,2-f][1,2,4]triazin-4-yl)phenyl)propanamide]
6 | 1.01 to 10 nM | 10 to 100 nM | CCC(C(=O)Nc1ccc(-c2ncnn3cc(-c4cnn(C)c4)cc23)cc1)c1ccc(Cl)cc1 (stereo not drawn) [Compound 43]
7 | 1.01 to 10 nM | 10 to 100 nM | COC(C(=O)Nc1ccc(-c2ncnn3cc(-c4cnn(C)c4)cc23)cc1)c1ccc(Cl)cc1 (stereo not drawn) [Compound 52]
8 | 1.01 to 10 nM | 10 to 100 nM | Cc1ccc(S(=O)(=O)Nc2ccc(-c3ncnn4cc(-c5cnn(C)c5)cc34)cc2)cc1 [Compound 22]
9 | 10 to 100 nM | 1000 to 10000 nM | Cn1cc(-c2cc3c(-c4ccc(NC(=O)Cc5ccccn5)cc4)ncnn3c2)cn1 [Compound 5]
10 | 1.01 to 10 nM | 10 to 100 nM | Cn1cc(-c2cc3c(-c4ccc(NC(=O)C(C)(O)c5ccc(Cl)cc5)cc4)ncnn3c2)cn1 (stereo not drawn) [Compound 51]
11 | 10 to 100 nM | 1000 to 10000 nM | CC(C)Oc1ccc(-c2cc3c(-c4ccc(NS(=O)(=O)c5ccc(Cl)cc5)cc4)ncnn3c2)cc1 [Compound 62, 4-chloro-N-(4-(6-(4-isopropoxyphenyl)pyrrolo[2,1-f][1,2,4]triazin-4-yl)phenyl)benzenesulfonamide]
12 | 1.01 to 10 nM | 10 to 100 nM | Cn1cc(-c2cc3c(-c4ccc(NC(=O)Cc5c[nH]c6ccccc56)cc4)ncnn3c2)cn1 [Compound 23]
13 | > 100 nM | 1000 to 10000 nM | O=S(=O)(Nc1ccc(-c2ncnn3cc(-c4ccc(F)cc4)cc23)cc1)c1ccc(Cl)cc1 [Compound 55]
14 | 10 to 100 nM | 100 to 1000 nM | CC[C@H](C(=O)Nc1ccc(-c2ncnn3cc(-c4cnn(C)c4)cc23)cc1)c1ccc(Cl)cc1 [Compound 44]
15 | 1.01 to 10 nM | 10 to 100 nM | CCOC(=O)N1CC=C(c2cc3c(-c4ccc(NS(=O)(=O)c5ccc(Cl)cc5)cc4)ncnn3c2)CC1 [Compound 64, ethyl 4-(4-(4-((4-chlorophenyl)sulfonamido)phenyl)pyrrolo[2,1-f][1,2,4]triazin-6-yl)-3,6-dihydropyridine-1(2H)-carboxylate]
16 | 1.01 to 10 nM | 100 to 1000 nM | COc1ccc(S(=O)(=O)Nc2ccc(-c3ncnn4cc(-c5cnn(C)c5)cc34)cc2)cc1 [Compound 35]
17 | 10 to 100 nM | 100 to 1000 nM | Cn1cc(-c2cc3c(-c4ccc(NC(=O)[C@](C)(O)c5ccc(Cl)cc5)cc4)ncnn3c2)cn1 [Compound 50, 2-(4-chlorophenyl)-2-hydroxy-N-(4-(6-(1-methyl-1H-pyrazol-4-yl)pyrrolo[1,2-f][1,2,4]triazin-4-yl)phenyl)propanamide]
18 | 1.01 to 10 nM | 100 to 1000 nM | CS(=O)(=O)Nc1ccc(-c2ncnn3cc(-c4ccc(S(C)(=O)=O)cc4)cc23)cc1 [Compound 16]
19 | 10 to 100 nM | > 10000 nM | CC(C)S(=O)(=O)Nc1ccc(-c2ncnn3cc(-c4cnn(C)c4)cc23)cc1 [Compound 2]
20 | 1.01 to 10 nM | 100 to 1000 nM | CN(C)C(=O)c1ccc(-c2cc3c(-c4ccc(NS(C)(=O)=O)cc4)ncnn3c2)cc1 [Compound 14]

Second part, the compound before the results:

Row | SMILES | IC50 (D816V Kit) | IC50 [1]
21 | Cn1cc(-c2cc3c(-c4ccc(NC(=O)Cc5cccc(Cl)c5)cc4)ncnn3c2)cn1 [Compound 18] | 1.01 to 10 nM | 100 to 1000 nM
22 | Cn1cc(-c2cc3c(-c4ccc(NC(=O)[C@H](O)c5ccc(Cl)cc5)cc4)ncnn3c2)cn1 [Compound 32, 2-(4-chlorophenyl)-2-hydroxy-N-(4-(6-(1-methyl-1H-pyrazol-4-yl)pyrrolo[1,2-f][1,2,4]triazin-4-yl)phenyl)acetamide] | < 1 nM | < 10 nM
23 | CN(C)C(C(=O)Nc1ccc(-c2ncnn3cc(-c4cnn(C)c4)cc23)cc1)c1ccc(Cl)cc1 (stereo not drawn) [Compound 59, 2-(4-chlorophenyl)-2-(dimethylamino)-N-(4-(6-(1-methyl-1H-pyrazol-4-yl)pyrrolo[1,2-f][1,2,4]triazin-4-yl)phenyl)acetamide] | 1.01 to 10 nM | 10 to 100 nM
24 | Cn1cc(-c2cc3c(-c4ccc(NC(=O)[C@](C)(N)c5ccc(Cl)cc5)cc4)ncnn3c2)cn1 [Compound 46, 2-amino-2-(4-chlorophenyl)-N-(4-(6-(1-methyl-1H-pyrazol-4-yl)pyrrolo[1,2-f][1,2,4]triazin-4-yl)phenyl)propanamide] | 1.01 to 10 nM | < 10 nM
25 | CS(=O)(=O)c1ccc(-c2cc3c(-c4ccc(NS(=O)(=O)c5ccc(Cl)cc5)cc4)ncnn3c2)cc1 [Compound 65] | 10 to 100 nM | 100 to 1000 nM
26 | Cn1cc(CC(=O)Nc2ccc(-c3ncnn4cc(-c5cnn(C)c5)cc34)cc2)cn1 [Compound 6] | 10 to 100 nM | 1000 to 10000 nM
27 | Cn1cc(-c2cc3c(-c4ccc(NC(=O)C5(c6ccc(Cl)cc6)CC5)cc4)ncnn3c2)cn1 [Compound 39] | 10 to 100 nM | 100 to 1000 nM
28 | C[C@@H](C(=O)Nc1ccc(-c2ncnn3cc(-c4cnn(C)c4)cc23)cc1)c1ccc(Cl)cc1 [Compound 28] | 1.01 to 10 nM | < 10 nM
29 | Cn1cc(-c2cc3c(-c4ccc(NC(=O)Cc5ccc(Cl)cc5Cl)cc4)ncnn3c2)cn1 [Compound 54] | 1.01 to 10 nM | < 10 nM
30 | Cn1cc(-c2cc3c(-c4ccc(NC(=O)C(C)(C)c5ccc(Cl)cc5)cc4)ncnn3c2)cn1 [Compound 41, 2-(4-chlorophenyl)-2-methyl-N-(4-(6-(1-methyl-1H-pyrazol-4-yl)pyrrolo[1,2-f][1,2,4]triazin-4-yl)phenyl)propanamide] | < 1 nM | 10 to 100 nM
31 | Cn1cc(-c2cc3c(-c4ccc(NS(=O)(=O)c5ccc(Cl)cc5)c(F)c4)ncnn3c2)cn1 [Compound 57] | 10 to 100 nM | 1000 to 10000 nM
32 | Cn1cc(-c2cc3c(-c4ccc(NS(=O)(=O)c5ccccc5Cl)cc4)ncnn3c2)cn1 [Compound 38] | 10 to 100 nM | 1000 to 10000 nM
33 | Cn1cc(-c2cc3c(-c4ccc(NS(=O)(=O)CC5COCCO5)cc4)ncnn3c2)cn1 (stereo not drawn) [Compound 25] | 10 to 100 nM | 1000 to 10000 nM
34 | CO[C@@H](C(=O)Nc1ccc(-c2ncnn3cc(-c4cnn(C)c4)cc23)cc1)c1ccc(Cl)cc1 [Compound 48] | < 1 nM | < 10 nM
35 | CC(C)(O)Cn1cc(-c2cc3c(-c4ccc(NC(=O)Cc5ccc(Cl)cc5)cc4)ncnn3c2)cn1 [Compound 60] | 1.01 to 10 nM | 10 to 100 nM
36 | Cn1cc(-c2cc3c(-c4ccc(NS(=O)(=O)c5ccccc5)cc4)ncnn3c2)cn1 [Compound 13] | 1.01 to 10 nM | 100 to 1000 nM
